In US20090005424A9, “Composition and Method for Treating Fibrotic Diseases” (priority 2005, published 2009):

Legend:
fibroblast = experiment: Inhibition of fibroblast, side-by-side comparison of substituents; type: cell-based; conditions: structural formula II, n=1
Kidney Fibroblast = experiment: MTT proliferation assay, mouse kidney fibroblast; type: cell-based
Description: (§1) Cell proliferation was measured by MTT assay. DMEM with 10% fetal serum was used as cell culture medium. The cells were prepared in suspension (1×10^5/ml), and 100 μL of the suspension was transferred to each well of a 96 wells plate. Once the cells were attached to the plastic, the culture was changed to serum free medium and continued for another 24 hours. The serum free medium was aspirated, and various concentrations of 1-(3′-fluorophenyl)-5-methyl-2(1H)-pyridone (AKF-PD) 1-(3′-bromophenyl)-5-methyl-2(1H)-pyridone (AKF-BR) or PIRFENIDONE (PFD) in 10% serum medium were added into each well with 5 replicates for each concentration. The cells were stained with MTT (10 μL per well) at 24, 48, and 72 hours post drug treatment. After 4 hrs of incubation, the medium with MTT was aspirated from each well. One hundred μL MTT solvent was added to each well for 15 min. The dissolved MTT was then measured with a plate reader at 570 nm.

[1] = tested on: Rat Pulmonary Fibroblasts; experiment: MTT proliferation assay, rat pulmonary fibroblasts; type: cell-based
Description: as §1, with “and incubated” for “and continued”, “hours. Then, the” for “hours. The”, “(AKF-PD) or 1-(3′-bromophenyl)-5-Methyl-2(1H)-Pyridone” for “(AKF-PD) 1-(3′-bromophenyl)-5-methyl-2(1H)-pyridone (AKF-BR)”, “24, or 48” for “24, 48, and 72”, “15 min, and the” for “15 min. The”, “was” for “was then”

[2] = tested on: ICR mice injected with bleomycin; experiment: Bleomycin-induced mouse pulmonary fibrosis, histological score of lung tissue; type: in vivo; conditions: AKF-PD and PFD 500 mg/kg, captopril 12.5 mg/kg by gavage day 1 to 28, Szapiel's method
Description: Under regular care condition, 7-10 weeks old, male, institute of cancer research (ICR) mice, weight 28-39 g, were randomly grouped as normal control, disease, disease/AKF-PD, disease/PFD and disease Captopril group.
Control group was injected with normal saline once day from day 2 to 15 days. Disease, disease/AKF-PD, disease/PFD and disease/captopril groups were injected with bleomycin once day from day 2 to 15. Control and disease groups were given 0.5% CMC by gavage once a day from day 1 to day 28. 500 mg/kg of AKF-PD CMC suspension and PD CMC suspension and 12.5 mg/kg captopril in saline were administered to respective groups by gavage once day from day 1 to day 28. All animals were sacrificed on day 29 and their lungs were removed for pathological (HE staining) examination.
Histological scoring for the lung tissue was done according Szapiel's method.

[3] = tested on: SD rat, Unilateral Ureteral Obstruction (UUO) model; experiment: Rat UUO model of renal interstitial fibrosis, histological score (Example 8); type: in vivo; conditions: UUO rats; AKF-PD 500 mg/kg/d, Enalapril 10 mg/kg/d by gavage; 14 days post surgery; Radford's method
Description: Anti-fibrotic effect of AKF-PD was tested on a SD rat model for renal interstitial fibrosis induced by surgical ligation of single side ureter (Unilateral Ureteral Obstruction, UUO, model). Eight weeks old male SD rats (180 g˜220 g) were randomly divided into sham surgical group, disease model group, Enalapril (10 mg/kg/d) group and AKF-PD (500 mg/kg/d) group. […] The animals of the sham surgical group experienced the same surgical procedure except the ligation step. The respective drugs were administrated by gavage to rats in the groups of Enalapril and AKF-PD from one day prior to the procedure to 14 days post surgical procedure. Normal saline was administrated in a similar fashion to the rats in the groups of disease model and sham surgical. The animals were sacrificed 14 days after surgical procedure and their left kidney were removed for pathological (HE staining) examination. Histological scoring for interstitial compartment was done according to Radford's method (Radford et al., Predicting renal outcome in IgA nephropathy. J. Am. Soc. Nephrol. 8: 199-207(1997)).

[4] = tested on: Kun Ming (KM) mice infected with Schistosoma miracidium; experiment: Schistosomial liver fibrosis in Kun Ming mice, egg granuloma area and immunohistology; type: in vivo; conditions: all after Pyquiton 650 mg/kg 4 days, AKF-PD 500 mg/kg daily gavage, γ-interferon 50,000 unit daily i.m., 8 weeks
Excerpt: Kun Ming (KM) mice were infected with Schistosoma miracidium to induce schistosomial liver fibrosis. […] Ten Schistosoma miracidium were placed on shaved abdominal skin of each mouse for infection. […] Five hundred mg/kg AKF-PD were given daily by gavage to the disinfected mice of infected/AKF-PD group. The disinfected mice were given (i.m.) 50,000 unit γ-interferon daily. […] Drug or normal saline treatment was continued for 8 weeks. All mice were sacrificed one week after discontinue of drug treatment, and the left lobe of liver from each mouse was taken for pathological examination. Examination of HE-stained slices of liver tissue were carried out as follows. In general, after 16 weeks of Schistosoma miracidia infection, the area of schistosomo egg granuloma would directly correlate to the severity of liver fibrosis. Therefore, the area of schistosomo egg granuloma was measured using a high-resolution, color pathology graphic analyzer (HPIAS-1000). The sum of area of 5 granuloma with abundant eggs and the sum of area of 5 granuloma with few eggs were measured for each slice.

Which activity inhibiting fibroblast (fibroblast) does the source give for Cc1ccc(=O)n(-c2cccc(I)c2)c1 [1-(3′-iodophenyl)-5-methyl-2(1H)-pyridone] here?
The activity inhibiting fibroblast was “activities inhibiting fibroblast”.

With Cc1cccc(-n2cc(C)ccc2=O)c1 [5-methyl-1-(3′-methylphenyl)-2(1H)-pyridone] as the molecule, how does the activity inhibiting fibroblast (fibroblast) read?
The activity inhibiting fibroblast was “activities inhibiting fibroblast”.

Cc1ccc(=O)n(-c2cccc(Br)c2)c1 [AKF-BR, 1-(3′-bromophenyl)-5-methyl-2(1H)-pyridone] was tested. Which “inhibition of proliferation of kidney fibroblast” value (Kidney Fibroblast) did it give?
The value was “capable of inhibiting the proliferation of kidney fibroblast”.

What about the “Optical Density at 570 nm” value (Kidney Fibroblast; 100 μg/ml, 24 h) of the same molecule?
Its value is 0.5937 ± 0.0307.

And the “Optical Density at 570 nm” value (Kidney Fibroblast; 100 μg/ml, 48 h)?
The value was 0.5811 ± 0.0161.

And the “Optical Density at 570 nm” value (Kidney Fibroblast; 100 μg/ml, 72 h)?
The value was 0.5363 ± 0.0158.

What about the “Optical Density at 570 nm” value (Kidney Fibroblast; 500 μg/ml, 24 h) of the same molecule?
The value was 0.5895 ± 0.0253.

And the “Optical Density at 570 nm” value (Kidney Fibroblast; 500 μg/ml, 48 h)?
Its value is 0.5418 ± 0.0221.

And the “Optical Density at 570 nm” value (Kidney Fibroblast; 500 μg/ml, 72 h)?
The value was 0.4731 ± 0.0249.

What about the “Optical Density at 570 nm” value (Kidney Fibroblast; 1000 μg/ml, 24 h) of the same molecule?
The value was 0.5723 ± 0.0254.

What about the “Optical Density at 570 nm” value (Kidney Fibroblast; 1000 μg/ml, 48 h) of the same molecule?
The value was 0.5192 ± 0.0178.

What about the “Optical Density at 570 nm” value (Kidney Fibroblast; 1000 μg/ml, 72 h) of the same molecule?
Its value is 0.4161 ± 0.0249.

And the “order of inhibitory effect” value (Kidney Fibroblast; kidney fibroblast)?
The value was “AKF-PD>AKF-BR>pirfenidone”.

What about the “suppression of proliferation of rat pulmonary fibroblasts” value [1] of the same molecule?
The value was “could suppress proliferation of rat pulmonary fibroblasts”.

What about the “Optical Density at 570 nm” value ([1]; 100 μg/ml, 24 h) of the same molecule?
Its value is 0.1654 ± 0.0143.

And the “Optical Density at 570 nm” value ([1]; 100 μg/ml, 48 h)?
The value was 0.1475 ± 0.0211.

What about the “Optical Density at 570 nm” value ([1]; 500 μg/ml, 24 h) of the same molecule?
The value was 0.1342 ± 0.0237.

And the “Optical Density at 570 nm” value ([1]; 500 μg/ml, 48 h)?
The value was 0.1292 ± 0.0178.

And the “Optical Density at 570 nm” value ([1]; 1000 μg/ml, 24 h)?
The value was 0.1204 ± 0.0176.

What about the “Optical Density at 570 nm” value ([1]; 1000 μg/ml, 48 h) of the same molecule?
The value was 0.1201 ± 0.0342.

What about the “order of inhibitory effect” value ([1]; rat pulmonary fibroblasts) of the same molecule?
Its value is “AKF-PD>AKF-BR>pirfenidone”.

What about the activity inhibiting fibroblast (fibroblast) of the same molecule?
Its activity inhibiting fibroblast is “activities inhibiting fibroblast”.

With C[C@H](CS)C(=O)N1CCC[C@H]1C(=O)O [Captopril] as the molecule, how does the “Histological Score for Lung Tissue, Mean” value [2] read?
The value was 2.7143.

CCOC(=O)[C@H](CCc1ccccc1)N[C@@H](C)C(=O)N1CCC[C@H]1C(=O)O [Enalapril, reference compound] was tested. Which “Histological Score for Interstitial Compartment” value [3] did it give?
The value was 9.21 ± 0.64.

B1: γ-interferon: γ-interferon given i.m. 50,000 unit daily to disinfected mice (protein, UniProt P01580 23-155, looked up)
Interferon gamma: HGTVIESLESLNNYFNSSGIDVEEKSLFLDIWRNWQKDGDMKILQSQIISFYLRLFEVLKDNQAISNNISVIESHLITTFFSNSKAKKDAFMSIAKFEVNNPQVQRQAFNELIRVVHQLLPESSLRKRKRSRC
With B1 as the molecule, how does the “Schistosomo Egg Granuloma Area, Mean” value ([4]; granuloma with abundant eggs) read?
Its value is 83706.79 μm^2.

And the “Schistosomo Egg Granuloma Area, Mean” value ([4]; granuloma with few eggs)?
Its value is 32407.14 μm^2.
